# Where “and” joins values, the source holds several entries; their conditions need not be identical. Equal entries are not always repeated. Where two headings read alike, the source gives them in different places.
# Test: Phase 1 Stage 1 clinical pharmacokinetics of SC ZA co-administered with rHuPH20
# Type: in vivo, human
# Parameters: key to Mean Conc. / Median Conc.: BLQ = blow limit for quantitation
# Settings: serum, serum; for MAT: subcutaneous, 100 mL, 24000 Units rHuPH20, read-out: MAT (mean absorption time = SC MRT − IV MRT); for half-life: read-out: T½ λz (converted)
# Protocol: A pharmacokinetic study of zoledronic acid (ZA) co-administered with rHuPH20 in human subjects was conducted. The primary objective of the study was to determine the bioavailability of zoledronic acid dosed via subcutaneous (SC) co-administration with human recombinant hyaluronidase PH20 (rHuPH20). […] The patients were administered the prescribed dosage formulations as follows: Cohorts 1-5 were administered a single subcutaneous infusion in a dosage volume of 100 ml at a rate of 3 mL/min. […] The dosing solution is administered via needle or catheter into the SC space of the left anterior thigh (midway between the anterior iliac crest and the cephalad border of the patella). For cohorts 1-5, the dosing solutions were administered by a controlled rate infusion pump at approximately 3 mL/minute. […] The dosing solutions were administered by syringe push bolus injection. […] Serum concentration of ZA was determined using a qualified LC-MS-MS assay after derivatization with diazomethane (Zhu, L S et al. (2006) Rapid Commun. […] The assay range was from 2.0 to 400 ng/mL with a lower limit of quantitation (LLOQ) at 2.0 ng/mL. […] Non-compartmental analysis was used for derivation of primary and secondary pharmacokinetic (PK) parameters. […] Summary statistics (mean, standard deviation, and median) were calculated using JMP or Microsoft Excel.
# [1] = ZA 0.25 mg SC infusion + 24000 Units rHuPH20, 12 h post infusion, n=3
# [2] = ZA 0.25 mg SC infusion + 24000 Units rHuPH20, 24 h post infusion, n=3
# [3] = ZA 0.25 mg SC infusion + 24000 Units rHuPH20, 48 h post infusion, n=3
structure (smiles),measurement,setting,value
"O=P(O)(O)C(O)(Cn1ccnc1)P(=O)(O)O [ZA, 1-hydroxy-2-(1H-imidazol-1-yl)ethylidene-1,1-bisphosphonic acid]",concentration at 6 h,"human, sc, ZA 5 mg SC infusion + 24000 Units rHuPH20, 6 h post infusion, n=3, read-out: Median Conc.",22.3 ng/mL
same,concentration at 8 h,"human, sc, ZA 5 mg SC infusion + 24000 Units rHuPH20, 8 h post infusion, individual subjects, read-out: Zoledronic Acid Concentration",9.44 ng/mL
same,concentration at 8 h,"human, sc, ZA 5 mg SC infusion + 24000 Units rHuPH20, 8 h post infusion, n=3, read-out: Mean Conc.",11 ng/mL
same,concentration at 8 h,"human, sc, ZA 5 mg SC infusion + 24000 Units rHuPH20, 8 h post infusion, n=3, read-out: Median Conc.",11 ng/mL
same,concentration at 12 h,"human, sc, ZA 5 mg SC infusion + 24000 Units rHuPH20, 12 h post infusion, individual subjects, read-out: Zoledronic Acid Concentration",3.91 ng/mL
same,concentration at 12 h,"human, sc, ZA 5 mg SC infusion + 24000 Units rHuPH20, 12 h post infusion, n=3, read-out: Mean Conc.",4.51 ng/mL
same,concentration at 12 h,"human, sc, ZA 5 mg SC infusion + 24000 Units rHuPH20, 12 h post infusion, n=3, read-out: Median Conc.",4.61 ng/mL
same,concentration at 24 h,"human, sc, ZA 5 mg SC infusion + 24000 Units rHuPH20, 24 h post infusion, individual subjects, read-out: Zoledronic Acid Concentration",2.15 ng/mL
same,concentration at 24 h,"human, sc, ZA 5 mg SC infusion + 24000 Units rHuPH20, 24 h post infusion, n=3, read-out: Mean Conc.",2.45 ng/mL
same,concentration at 24 h,"human, sc, ZA 5 mg SC infusion + 24000 Units rHuPH20, 24 h post infusion, n=3, read-out: Median Conc.",2.23 ng/mL
same,concentration at 48 h,"human, sc, ZA 5 mg SC infusion + 24000 Units rHuPH20, 48 h post infusion, individual subjects, read-out: Zoledronic Acid Concentration",1.28 ng/mL
same,concentration at 48 h,"human, sc, ZA 5 mg SC infusion + 24000 Units rHuPH20, 48 h post infusion, n=3, read-out: Mean Conc.",1.55 ng/mL
same,concentration at 48 h,"human, sc, ZA 5 mg SC infusion + 24000 Units rHuPH20, 48 h post infusion, n=3, read-out: Median Conc.",1.63 ng/mL
same,MAT,"human, 0.5 mg, ZA 0.5 mg SC, individual subjects",0.96 h
same,MAT,"human, 1 mg, ZA 1 mg SC, individual subjects",1.68 h
same,half-life,"human, Subj 1, ZA 0.0045 mg/kg SC, inf 0.554 hr, PH20 23928 U",1.88 h
same,half-life,"human, Subj 8, ZA 0.0032 mg/kg SC, inf 0.531 hr, PH20 22944 U",3.09 h
same,half-life,"human, Subj 11, ZA 0.0033 mg/kg SC, inf 0.554 hr, PH20 23928 U",2.2 h
same,half-life,"human, Subj 21, ZA 0.0066 mg/kg SC, inf 0.556 hr, PH20 24000 U",2.27 h
same,half-life,"human, Subj 29, ZA 0.0339 mg/kg SC, inf 0.556 hr, PH20 24000 U",8.7 h
same,half-life,"human, Subj 32, ZA 0.0350 mg/kg SC, inf 0.556 hr, PH20 24000 U",22 h
same,half-life,"human, Subj 37, ZA 0.0791 mg/kg SC, inf 0.556 hr, PH20 24000 U",23.4 h
same,half-life,"human, Subj 38, ZA 0.0706 mg/kg SC, inf 0.554 hr, PH20 23952 U",24.4 h
same,half-life,"human, Subj 46, ZA 0.0877 mg/kg SC, inf 0.276 hr, PH20 12000 U",20.8 h
same,half-life,"human, Subj 71, ZA 0.0781 mg/kg SC, inf 0.250 hr, PH20 6000 U",19.2 h
same,half-life,"human, Subj 74, ZA 0.0794 mg/kg SC, inf 0.250 hr, PH20 6000 U",23.7 h
same,Zoledronic Acid Concentration,"ZA 0.25 mg SC infusion + 24000 Units rHuPH20, 0 h post infusion, individual subjects, listed as Zoledronic Acid",4.69 ng/mL
same,Zoledronic Acid Concentration,"ZA 0.25 mg SC infusion + 24000 Units rHuPH20, 10 min post infusion, individual subjects, listed as Zoledronic Acid",4.97 ng/mL and 4.87 ng/mL
same,Zoledronic Acid Concentration,"ZA 0.25 mg SC infusion + 24000 Units rHuPH20, 0.5 h post infusion, individual subjects, listed as Zoledronic Acid",5.17 ng/mL and 6.25 ng/mL
same,Zoledronic Acid Concentration,"ZA 0.25 mg SC infusion + 24000 Units rHuPH20, 1 h post infusion, individual subjects, listed as Zoledronic Acid",5.67 ng/mL and 6.60 ng/mL
same,Zoledronic Acid Concentration,"ZA 0.25 mg SC infusion + 24000 Units rHuPH20, 2 h post infusion, individual subjects, listed as Zoledronic Acid",4.33 ng/mL and 5.44 ng/mL
same,Zoledronic Acid Concentration,"ZA 0.25 mg SC infusion + 24000 Units rHuPH20, 4 h post infusion, individual subjects, listed as Zoledronic Acid",3.45 ng/mL and 3.06 ng/mL
same,Zoledronic Acid Concentration,"ZA 0.25 mg SC infusion + 24000 Units rHuPH20, 6 h post infusion, individual subjects, listed as Zoledronic Acid",2.02 ng/mL and 1.35 ng/mL
same,Zoledronic Acid Concentration,"ZA 0.25 mg SC infusion + 24000 Units rHuPH20, 8 h post infusion, individual subjects, listed as Zoledronic Acid",1.11 ng/mL and 0.79 ng/mL
same,Zoledronic Acid Concentration,"ZA 0.25 mg SC infusion + 24000 Units rHuPH20, 12 h post infusion, individual subjects",BLQ < (0.500) ng/mL
same,Mean Conc.,[1],BLQ
same,Median Conc.,[1],BLQ
same,Zoledronic Acid Concentration,"ZA 0.25 mg SC infusion + 24000 Units rHuPH20, 24 h post infusion, individual subjects",BLQ < (0.500) ng/mL
same,Mean Conc.,[2],BLQ
same,Median Conc.,[2],BLQ
same,Zoledronic Acid Concentration,"ZA 0.25 mg SC infusion + 24000 Units rHuPH20, 48 h post infusion, individual subjects",BLQ < (0.500) ng/mL
same,Mean Conc.,[3],BLQ
same,Median Conc.,[3],BLQ
same,Zoledronic Acid Concentration,"ZA 0.5 mg SC infusion + 24000 Units rHuPH20, 0 h post infusion, individual subjects, listed as Zoledronic Acid",13.60 ng/mL
